For one data set, the target named is HDAC1 (Homo sapiens (Human), UniProt Q13547). Kind of data set: HDAC enzyme assay, HDAC1. It counts as biochemical. The settings on record: 24 hours pre-incubation with enzyme; read-out: IC50 (nM) HDAC1. How it is done:
(§1) Compounds for testing were diluted in DMSO to 50 fold the final concentration and a ten point three fold dilution series was made. The compounds were diluted in assay buffer (50 mM HEPES, pH 7.4, 100 mM KCl, 0.001% Tween-20, 0.05% BSA, 20 μM tris(2-carboxyethyl)phosphine) to 6 fold their final concentration. The HDAC enzymes (purchased from BPS Biosciences) were diluted to 1.5 fold their final concentration in assay buffer and pre-incubated with the compounds for 24 hours prior to addition of the substrate.
(§2) The substrate tripeptide substrate 3 (synthesized in house) for each enzyme was equal to the Km as determined by a substrate titration curve. The substrates were diluted in assay buffer at 6× their final concentration with 0.3 μM sequencing grade trypsin (Sigma). The substrate/trypsin mix was added to the enzyme/compound mix, the plate was shaken for 60 seconds and placed into a Spectramax M5 microtiter plate reader. The development of fluorescence was monitored for 30 min and the linear rate of the reaction was calculated. The IC50 was determined using Graph Pad Prism by a four parameter curve fit. The IC50 values obtained for the compounds of this invention are found in Table 1. Examples of the curves are found in FIGS. 1 and 4.

The target in a further data set is HDAC2 (Homo sapiens (Human), UniProt Q92769). Kind of data set: HDAC enzyme assay, HDAC2. The format is biochemical. Conditions: 24 hours pre-incubation with enzyme; read-out: IC50 (nM) HDAC2. On the procedure: as §1, §2
Chain of HDAC2 (Q92769 whole entry): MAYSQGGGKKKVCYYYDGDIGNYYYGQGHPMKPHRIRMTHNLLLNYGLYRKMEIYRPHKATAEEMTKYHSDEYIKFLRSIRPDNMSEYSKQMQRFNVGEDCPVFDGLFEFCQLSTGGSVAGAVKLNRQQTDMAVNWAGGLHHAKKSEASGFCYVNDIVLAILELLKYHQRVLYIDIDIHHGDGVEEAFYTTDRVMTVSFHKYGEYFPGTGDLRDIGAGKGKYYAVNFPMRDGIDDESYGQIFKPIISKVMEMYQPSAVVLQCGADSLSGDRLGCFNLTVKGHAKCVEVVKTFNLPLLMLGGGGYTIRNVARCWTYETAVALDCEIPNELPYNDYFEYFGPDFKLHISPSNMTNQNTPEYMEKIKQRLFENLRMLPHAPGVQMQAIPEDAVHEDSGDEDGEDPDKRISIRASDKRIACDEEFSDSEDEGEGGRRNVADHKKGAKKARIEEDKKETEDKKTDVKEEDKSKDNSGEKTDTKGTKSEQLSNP
Another data set deals with HDAC3 (Homo sapiens (Human), UniProt O15379). Kind of data set: HDAC enzyme assay, HDAC3. The settings on record: 24 hours pre-incubation with enzyme; read-out: IC50 (nM) HDAC3. It counts as biochemical. How it is done: as §1, §2
Chain of HDAC3 (O15379 whole entry): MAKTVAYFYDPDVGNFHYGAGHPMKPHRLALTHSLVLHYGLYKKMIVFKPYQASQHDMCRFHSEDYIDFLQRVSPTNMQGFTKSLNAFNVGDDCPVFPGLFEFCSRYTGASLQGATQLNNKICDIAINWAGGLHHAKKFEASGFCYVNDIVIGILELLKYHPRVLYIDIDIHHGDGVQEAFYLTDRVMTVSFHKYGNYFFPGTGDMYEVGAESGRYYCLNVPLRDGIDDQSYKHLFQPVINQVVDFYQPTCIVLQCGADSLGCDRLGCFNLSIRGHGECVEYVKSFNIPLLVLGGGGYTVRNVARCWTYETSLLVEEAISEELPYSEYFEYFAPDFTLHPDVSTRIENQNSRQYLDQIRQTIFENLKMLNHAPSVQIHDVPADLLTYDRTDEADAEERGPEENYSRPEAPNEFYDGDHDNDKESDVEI
Chain of HDAC3 (Q9Y618 395-489 partner): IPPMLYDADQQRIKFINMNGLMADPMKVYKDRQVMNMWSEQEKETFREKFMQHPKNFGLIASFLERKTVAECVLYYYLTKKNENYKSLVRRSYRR
Data set [1] is described as follows: Rat cassette pharmacokinetics. The format is in vivo. Conditions: male, SD, plasma. On the procedure: Male SD rats were fasted overnight. Compounds of the invention were dissolved in dimethyl acetamide at 10 times the final concentration, then Solutol HS 15 (BASF) was added to a final concentration of 10%. Finally 80% saline was added and vortexed to achieve a clear solution. For the IV dosing three animals were injected via the foot dorsal vein with 1 mg/kg compound. For the PO dosing 5 mg/kg of compound was delivered by oral gavage. Blood was collected via the tail vein into K2EDTA tubes at 5 minutes, 15 minutes, 30 minutes, 1 hour, 2 hours, 4 hours, 8 hours and 24 hours after dosing. The blood was centrifuged at 2000 g for 5 minutes at 4° C. to obtain plasma. The plasma was extracted with acetonitrile and the level of compound was analyzed by LC/MS/MS. The level of compound in plasma was calculated from a standard curve in rat plasma. The IV clearance and area under the curve were calculated using WinNonLin software. The dose adjusted area under the curve for the IV and oral dosing were used to calculate the oral bioavailability.

For another data set, the target named is hERG channel (Homo sapiens (Human), UniProt Q12809). Kind of data set: hERG assay (QPatch, CHO cell line expressing hERG channels). Conditions: In vitro tox. It counts as cell-based. How it is done: For hERG assays, a CHO cell line stably transfected with hERG cDNA and expressing hERG channels were seeded into a QPatch plate (Sophion) at a density of 3-8×10^6 cells/ml. The cells were voltage clamped at a holding potential of −80 mV. The hERG current was activated by depolarizing at +20 mV for 5 sec, after which the current was taken back to −50 mV for 5 sec to remove the inactivation and observe the deactivating tail current. The maximum amount of tail current size was used to determine hERG current amplitude. Six doses (30, 10, 3, 1, 0.3 and 0.1 μM) of Compound 003 were chosen to obtain fitting curves and IC50. Data were analyzed using Assay Software provided by Sophion and Graphpad Prism.
Chain of hERG channel (Q12809 whole entry): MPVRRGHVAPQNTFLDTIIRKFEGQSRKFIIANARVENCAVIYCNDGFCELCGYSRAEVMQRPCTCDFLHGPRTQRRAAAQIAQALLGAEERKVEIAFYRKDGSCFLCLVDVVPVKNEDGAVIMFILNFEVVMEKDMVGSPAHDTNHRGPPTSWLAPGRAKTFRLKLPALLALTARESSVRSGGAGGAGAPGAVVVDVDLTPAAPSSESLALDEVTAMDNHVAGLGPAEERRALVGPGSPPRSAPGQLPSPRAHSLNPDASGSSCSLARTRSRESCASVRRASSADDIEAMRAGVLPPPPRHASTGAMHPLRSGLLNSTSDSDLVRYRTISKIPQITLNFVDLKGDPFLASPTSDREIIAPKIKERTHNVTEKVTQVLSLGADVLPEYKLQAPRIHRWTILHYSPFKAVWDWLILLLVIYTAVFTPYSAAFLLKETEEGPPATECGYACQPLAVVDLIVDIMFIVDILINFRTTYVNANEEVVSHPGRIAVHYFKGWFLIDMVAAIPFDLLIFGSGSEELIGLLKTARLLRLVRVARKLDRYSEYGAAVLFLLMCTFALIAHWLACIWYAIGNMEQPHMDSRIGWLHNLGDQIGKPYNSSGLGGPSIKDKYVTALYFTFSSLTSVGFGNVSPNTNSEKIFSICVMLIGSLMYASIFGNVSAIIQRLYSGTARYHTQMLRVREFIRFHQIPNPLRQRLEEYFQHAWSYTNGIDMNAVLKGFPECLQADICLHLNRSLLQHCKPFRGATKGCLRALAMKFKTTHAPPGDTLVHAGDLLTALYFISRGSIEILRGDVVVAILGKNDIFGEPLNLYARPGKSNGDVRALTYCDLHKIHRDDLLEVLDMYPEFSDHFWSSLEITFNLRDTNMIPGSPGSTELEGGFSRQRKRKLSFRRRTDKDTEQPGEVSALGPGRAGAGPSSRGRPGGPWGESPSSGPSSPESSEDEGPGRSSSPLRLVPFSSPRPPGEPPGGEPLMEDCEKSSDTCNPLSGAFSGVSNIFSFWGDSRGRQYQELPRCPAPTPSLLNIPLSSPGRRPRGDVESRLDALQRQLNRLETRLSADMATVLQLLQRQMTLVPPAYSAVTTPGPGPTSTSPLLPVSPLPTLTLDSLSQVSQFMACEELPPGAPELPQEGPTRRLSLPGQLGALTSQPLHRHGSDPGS

The subject of data set [2] is CYP1A2, CYP2C9, CYP2C19, CYP3A4, CYP2D6. Kind of data set: Cyp inhibition in human liver microsomes. It counts as in vitro ADME. Conditions: In vitro tox; human liver microsomes. On the procedure: For Cyp inhibition, human live microsomes from BD Gentest were incubated with Compound 003 (10, 3.33, 1.11, 0.37, 0.12, 0.04, 0.01 μM) and substrate (CYP1A2: Phenacetin at 30 μM; CYP2C9: Diclofenac at 10 μM; CYP2C19: S-Mephenytoin at 35 μM; CYP3A4: Midazolam at 5 μM and Testosterone at 80 μM; CYP2D6: Bufuralol at 10 μM) for the following incubation times: CYP1A2, 2C9, 2D6: 10 minutes, 37° C.; CYP2C19: 45 minutes, 37° C.; CYP3A4: 5 minutes, 37° C. Substrate conversion was measured by liquid chromatography/mass spectrometry/mass spectrometry (LC/MS/MS). Inhibition was calculated by curve fitting in Graph Pad Prism.
On the technique in general: Liver microsomes are vesicles of endoplasmic reticulum, rich in cytochrome P450 enzymes.

Data set [3] relates to bacterial tester strains TA98, TA100, TA1535 and TA97a and E. coli tester strain WP2 uvrA. Kind of data set: Ames genotoxicity (bacterial reverse mutation). Conditions: In vitro tox. How it is done: For genotoxicity, bacterial tester strains TA98, TA100, TA1535 and TA97a as described by Ames et al. (1975) and the E. coli tester strain WP2 uvrA as described by Green and Muriel (1976) were incubated with Compound 003 at 250, 75, 25, 7.5, 2.5, 0.75, 0.25, and 0.075 μg/well in 24 well plates either with or without liver homogenate (S9) purchased commercially (MolTox; Boone, N.C.) prepared from male Sprague Dawley rats that have been injected intraperitonealy with Aroclor 1254 (200 mg/mL in corn oil), at a dose of 500 mg/kg, 5 days before sacrifice. Mutagenicity is evaluated by counting the number of colonies that form on non-permissive media.

The subject of data set [4] is human peripheral blood lymphocytes (HPBL). Kind of data set: Micronucleus formation assay. It counts as cell-based. The settings on record: In vitro tox. On the procedure:
Genotoxicity was further evaluated by micronucleus formation assay in human peripheral blood lymphocytes (HPBL). HPBL were obtained from healthy donors and exposed to Compound 003 at […] for 4 hours with or without S9 activation. The cells were washed with PBS and incubated in complete medium with 6 μg/ml cytocholasin B for 24 hours. The cells were then lysed, fixed, and mounted on microscope slides. The number of mononucleated, binucleated, and micronucleated cells was counted under blinded conditions.

A further data set in a line: Solubility. It counts as physicochemical.
Where [5] appears, read: rat cassette dosing, 5 mg/kg PO.

Converted amounts (≈) assume the structure as drawn.

Chain of HDAC1 (Q13547 whole entry): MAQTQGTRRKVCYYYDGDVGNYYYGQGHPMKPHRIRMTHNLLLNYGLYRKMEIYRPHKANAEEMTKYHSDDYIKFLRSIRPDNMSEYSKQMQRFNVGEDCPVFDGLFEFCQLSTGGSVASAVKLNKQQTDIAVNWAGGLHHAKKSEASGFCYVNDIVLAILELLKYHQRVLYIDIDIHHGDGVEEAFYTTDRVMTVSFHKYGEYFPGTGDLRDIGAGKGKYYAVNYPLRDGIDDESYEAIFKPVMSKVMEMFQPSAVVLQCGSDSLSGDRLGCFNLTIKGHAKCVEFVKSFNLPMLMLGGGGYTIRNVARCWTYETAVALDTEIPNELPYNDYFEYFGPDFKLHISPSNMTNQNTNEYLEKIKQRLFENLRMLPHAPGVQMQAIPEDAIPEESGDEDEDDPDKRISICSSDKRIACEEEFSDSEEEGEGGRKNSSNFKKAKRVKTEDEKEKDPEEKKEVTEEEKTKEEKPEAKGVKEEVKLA

The term IC50 denotes the concentration at which inhibition is half-maximal. The term bioavailability denotes dose-corrected exposure relative to a reference, in per cent. Read a high bioavailability as much systemic uptake. The term AUC denotes concentration integrated over time. A higher AUC goes with high exposure. For orientation: Cmax means the maximum level reached in the sampled fluid or tissue. Usually solubility stands for the dissolved amount per volume that the medium holds. In the case of `CN1CCN(C(=O)N2CCC(Nc3ccc(C(=O)Nc4cc(-c5cccs5)ccc4N)cc3)CC2)CC1` [Compound 005], the IC50 is 1.2 nM at HDAC1, 4.9 nM at HDAC2 and 82 nM at HDAC3. In data set [1] (5 mg/kg, rat, oral AUC to IV AUC, dose adjusted), the bioavailability turned out to be 79%. The AUC in [1] (setting [5]) came to 9160 ng·h/mL. This molecule also displayed a Cmax in data set [1] (setting [5]) of 569 ng/mL. For the same molecule, the half-life in [1] (rat cassette dosing, 5 mg/kg PO, read-out: PO T½ (converted)) is more than 24 h. In addition, in data set [1] (rat cassette dosing, IV 1 mg/kg, read-out: IV Clr. (converted)), the CL renal was 6.33 mL/min/kg. This molecule showed a hERG at hERG channel of 13.8 µM. The same molecule yielded a Cyp in [2] of more than 10 µM. The Ames entry in data set [3] is given as “Neg”. In data set [4], the MN result is given as “Neg”. Also, in the data set “Solubility”, the solubility amounted to 13.8 µM (≈ 7.16 µg/mL).

The record behind these values is patent US9790180B2, “Piperidine derivatives as HDAC1/2 inhibitors” (Acetylon Pharmaceuticals, Inc., priority 2014, dated 2017).
